Results reported in patent US20250074955A1, “MODIFIED LOW MOLECULAR WEIGHT GLUTENIN SUBUNIT AND USES THEREOF” (Ukko Inc., priority 2022, published 2025).
Where no end group is shown, it is not given here.

Experiments:
HLA-DQ2.5 = HLA-DQ2.5 (Homo sapiens, UniProt P01909+P01920, A45G/A70V/D89A/E106A/E77G/E98D/H199R/L107V/N214S/P84L/P87L/T103K/T109R/T172A/T60S/V78E/V99I/Y58L/Y62S/Y69I/Y79F); assay: MHC class II binding competition assay with radiolabeled probe peptide; details: competition with MHC class II bound radiolabeled probe peptide, purified MHC, 2-4 days incubation
HLA-DQ7.5 = target: T1, HLA-DQ7.5 (Homo sapiens, UniProt P01909+P01920); assay: as above; details: competition with MHC class II bound radiolabeled probe peptide, purified MHC, 2-4 days incubation
T1 construct: made in house
Protocol: In-vitro testing of modified gluten peptides was performed by a Major histocompatibility complex (MHC class II) binding assay (Sidney J. et. al. Current protocols in immunology 100.1 (2013)). Briefly, competition assays using different concentrations of WT and modified low molecular weight glutenin subunit (LMW-GS) peptides were conducted by diluting the peptides in NP40 buffer, and incubation for 2-4 days with purified MHC and a radiolabeled known MHC binding peptide (peptide probe). MHC class II molecules were purified by affinity chromatography, and peptides were radiolabeled using the chloramine T method. After the incubation period, the bound and unbound radiolabeled species were separated, and their relative amounts were determined by either size-exclusion gel-filtration chromatography or monoclonal antibody capture of MHC. The percentage of bound radioactivity was then determined. For each modified peptide, IC50 of WT and modified peptide were calculated. The known gluten peptide epitopes were analyzed for MHC binding as a positive control, both in the non-deamidated and in the deamidated form.
Tables I and II list the measured IC50 values from competition assays between the specified peptides and an MHC class II bound probe peptide.

HLA-DQ8 = HLA-DQ8 (Homo sapiens, UniProt P01909+P01920, A209T/A45G/C70Q/D89A/DUP78-78/E183D/E77G/F237L/G63E/H199R/I129T/K197E/L178F/L74F/L98V/Q57E/Q76R/S185I/S97I/T217I/T49S/V73L/Y58L); assay: as above; details: competition with MHC class II bound radiolabeled probe peptide, purified MHC, 2-4 days incubation
HLA-DQ2.2 = HLA-DQ2.2 (Homo sapiens, UniProt P01909+P01920, A45G/A70V/C70K/D167G/D89A/E106A/E183D/E77G/E98D/F237L/F77L/G63E/H199R/I129T/K197E/L107V/L178F/L74F/N214S/P84L/P87L/Q57E/Q76R/R75H/S185I/S97I/T103K/T109R/T172A/T60S/V73L/V78E/V99I/Y48F/Y58L/Y62S/Y69I/Y79F); assay: as above; details: competition with MHC class II bound radiolabeled probe peptide, purified MHC, 2-4 days incubation
HLA-DQ8 (human) = assay: competition with radiolabeled probe peptide, purified MHC class II
HLA-DQ2.5 (human) = assay: as above
HLA-DQ2.2 (human) = assay: as above

Row | IC50 (HLA-DQ2.5) [µM] | IC50 (HLA-DQ7.5) [µM] | IC50 (HLA-DQ8) [µM] | IC50 (HLA-DQ2.2) [µM] | IC50 (HLA-DQ8 (human)) [µM] | IC50 (HLA-DQ2.5 (human)) [µM] | IC50 (HLA-DQ2.2 (human)) [µM] | Molecule
1 | – | – | – | – | 39.9 | 32.4 | – | QQSPFPEQEQQHQQL [… (SEQ ID NO: 183)]
2 | – | – | – | – | 37.9 | – | – | QSPFPEQQEQHQQLQ [… (SEQ ID NO: 185)]
3 | – | – | – | – | – | 30.4 | – | QQPAFSRQHQPSLPQ [… (SEQ ID NO: 73)]
4 | – | – | – | – | 39.2 | – | – | QPFFSHQQRSGFSQQ [… (SEQ ID NO: 83)]
5 | – | – | – | – | 38.2 | – | – | GPPFSKQTEPVISQQ [… (SEQ ID NO: 186)]
6 | – | – | – | – | 31.9 | – | 39.8 | QPPSSEQQHSPPSQQ [… (SEQ ID NO: 81)]
7 | – | – | – | – | 31.5 | 32.3 | – | QQPPFSEQEQPSSQQ [… (SEQ ID NO: 77)]
8 | – | – | – | – | 35.8 | – | – | QQPFPEQQRSQFSQQ [… (SEQ ID NO: 85)]
9 | – | – | – | – | – | 37.4 | – | QQPPFWQHQPPFSQQ [… (SEQ ID NO: 76)]

More lines, now with the values behind:

Row | Molecule | IC50 (HLA-DQ2.5) [µM] | IC50 (HLA-DQ7.5) [µM] | IC50 (HLA-DQ8) [µM] | IC50 (HLA-DQ2.2) [µM] | IC50 (HLA-DQ8 (human)) [µM] | IC50 (HLA-DQ2.5 (human)) [µM] | IC50 (HLA-DQ2.2 (human)) [µM]
10 | QSPFSRQQKSPFSQQ [SEQ ID NO: 80] | > 40 | > 40 | > 40 | > 40 | – | – | –
11 | QQPPDSHQEHSPGPQ [SEQ ID NO: 187] | > 40 | > 40 | > 40 | > 40 | – | – | –
12 | QGPPFSKQTQPVIPQ [SEQ ID NO: 72] | > 40 | > 40 | > 40 | > 40 | – | – | –
13 | QQPPFSHQRPPFSQQ [SEQ ID NO: 70] | > 40 | > 40 | 39.1 | > 40 | – | – | –
14 | QQPPSSEQEHSPPSQ [SEQ ID NO: 79] | – | > 40 | – | – | – | – | –
15 | QQPPFSKQEQQQPIL [SEQ ID NO: 71] | > 40 | > 40 | 29.8 | > 40 | – | – | –
16 | QQPPFPRQHQQFPQQ [SEQ ID NO: 74] | > 40 | > 40 | > 40 | > 40 | – | – | –
17 | QQPAFSRQHQPSLPQ [SEQ ID NO: 73] | – | > 40 | – | – | – | – | –
18 | QPPSSEQQHSPPSQQ [SEQ ID NO: 81] | > 40 | > 40 | 31.9 | 39.8 | – | – | –
19 | QPPDSHQQHSPGSQQ [SEQ ID NO: 84] | > 40 | > 40 | > 40 | > 40 | – | – | –
20 | QQPFPEQQRSQFSQQ [SEQ ID NO: 85] | > 40 | > 40 | 35.8 | > 40 | – | – | –
21 | QQSPFSRQEKSPFSQ [SEQ ID NO: 78] | > 40 | > 40 | > 40 | > 40 | – | – | –
22 | QPSFSRQQKQPQSQQ [SEQ ID NO: 86] | > 40 | > 40 | > 40 | > 40 | – | – | –
23 | GPPFSKQTEPVISQQ [SEQ ID NO: 186] | > 40 | > 40 | 38.2 | > 40 | – | – | –
24 | QQSPFPEQEQQHQQL [SEQ ID NO: 183] | 32.4 | > 40 | 39.9 | > 40 | – | – | –
25 | QQPPFSKQEQQQPIL [… (SEQ ID NO: 71)] | – | – | – | – | 29.8 | – | –
26 | QQPPFSHQRPPFSQQ [… (SEQ ID NO: 70)] | – | – | – | – | 39.1 | – | –
27 | QPPFSEQQESPFSQQ [… (SEQ ID NO: 69)] | – | – | – | – | 1.14 | 0.158 | –
